In one assay the test system is P. acnes 11828. Nature of the assay: MIC microdilution, gram positive. The format is cell-based, Propionibacterium acnes. The note with it: Cutibacterium acnes, 11828; Table 1, Gram Positive. The method in brief:
(§1)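 Modified NCCLS broth microdilution: aerobes in full-strength BHI, anaerobes in half-strength BHI with yeast extract, hemin and menadione, each well given 10 µL of a ~1×10^8 CFU/mL inoculum. Drugs ranged 50–0.05 µg/assay, run in duplicate, incubated 24–48 h, anaerobically under 5% CO2/10% H2/N2 where needed. MIC was the lowest concentration with no visible growth.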
(In general: Dilution methods test growth across graded concentrations, often in twofold steps.)

In a further assay the test system is P. acnes 6922. Nature of the assay: MIC microdilution, gram positive. Type of assay: cell-based, Propionibacterium acnes. The note with it: Cutibacterium acnes, 6922; Table 1, Gram Positive. In a few lines:
as §1

Another assay concerns Fuso. 25586. Nature of the assay: MIC microdilution, gram negative. Particulars: for MIC: Fusobacterium nucleatum, Table 3, Gram Negative; for MIC Fuso. 25586: Table 3 printed a second time, Gram Negative. The format is cell-based, Fusobacterium nucleatum. Here is the method:
(§2) The MIC's for the compounds were determined by a modified microdilution tube dilution method described in “Methods for Dilution Antimicrobial Susceptibility Tests for Bacteria that Grow Aerobically” (National Committee for Clinical Laboratory Standards Approved Standards, 1997, NCCLS document M7-A4). In general the modifications were made because of the unique growth requirements for the fastidious oral organisms and for those bacteria that require anaerobic conditions. Reference is also made to “Methods for Antimicrobial Susceptibility of Anaerobic Bacteria” (National Committee for Clinical Laboratory Standards Approved Standards, 1997, NCCLS document M11-A4). Briefly, the methods were as follows. Cultures were grown for 18-24hrs (aerobic bacteria) or 48-72 hrs (anaerobic bacteria) in the appropriate medium. For aerobic bacteria full strength brain heart infusion medium (BHI, Difco) was used. For anaerobic bacteria, half strength BHI (18.5 g/L) was supplemented by adding yeast extract (10 g/L), hemin (0.29 mL of a stock solution containing 0.1 g/200 mL dH2O) and menadione (15 mL of a stock solution containing 0.15 mL in 30 mL 95% EtOH) was used. Initial cultures were diluted to approximately 1×10^8 CFU/mL for use as an inoculum. Each assay received 10 μL of the inoculum. The drugs were prepared from a stock solution contained in dimethyl sulfoxide (DMSO) and diluted into the culture medium. Final concentrations of the drugs ranged from 50 to 0.05 μg/assay. The tests were run in duplicate and were incubated appropriately with regard to oxygen requirements for 24 to 48 hrs as required. Anaerobic incubation was an atmosphere of 5% CO2, 10% H2, with the balance N2. The lowest concentration of an antimicrobial agent at which no visible growth is noted was referred to as the MIC. […] The method used was the same as described in Example 1.

The subject of a further assay is Aa Y4. Nature of the assay: MIC microdilution, gram negative. The format is cell-based, Actinobacillus actinomycetemcomitans. The note with it: for MIC: Aggregatibacter actinomycetemcomitans, Y4, Table 3, Gram Negative; for MIC Aa Y4: Table 3 printed a second time, Gram Negative. Here is the method: as §2
The test system of the next assay is P. ging 381. Nature of the assay: MIC microdilution, gram negative. The format is cell-based, Porphyromonas gingivalis. Particulars: for MIC: Porphyromonas gingivalis, 381, Table 3, Gram Negative; for MIC P. ging 381: Table 3 printed a second time, Gram Negative. The method in brief: (§3)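 Modified NCCLS broth microdilution; anaerobes grown 48-72 hrs in half-strength BHI with yeast extract, hemin and menadione, aerobes in full-strength BHI, inoculum ~1×10^8 CFU/mL (10 μL/assay). Drugs from DMSO stock, final 50 to 0.05 μg/assay, duplicate, 24 to 48 hrs (anaerobic: 5% CO2, 10% H2, N2); MIC = lowest concentration without visible growth.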

Another assay concerns Pg 53977. Nature of the assay: MIC microdilution, gram negative. Type of assay: cell-based, Porphyromonas gingivalis. The note with it: for MIC: Porphyromonas gingivalis, 53977, Table 3, Gram Negative; for MIC Pg 53977: Table 3 printed a second time, Gram Negative. In a few lines:
as §3

The next assay deals with Str. pn. R. Nature of the assay: Mean Streptococcus MIC. Type of assay: cell-based. The note with it: Streptococcus; Table 5, mean; strain resistant to penicillin and erythromycin. Here is the method:
(§4) The MIC's for the compounds were determined by a modified microdilution tube dilution method described in “Methods for Dilution Antimicrobial Susceptibility Tests for Bacteria that Grow Aerobically” (National Committee for Clinical Laboratory Standards Approved Standards, 1997, NCCLS document M7-A4). In general the modifications were made because of the unique growth requirements for the fastidious oral organisms and for those bacteria that require anaerobic conditions. Reference is also made to “Methods for Antimicrobial Susceptibility of Anaerobic Bacteria” (National Committee for Clinical Laboratory Standards Approved Standards, 1997, NCCLS document M11-A4).
(§5) Briefly, the methods were as follows. Cultures were grown for 18-24hrs (aerobic bacteria) or 48-72 hrs (anaerobic bacteria) in the appropriate medium. For aerobic bacteria full strength brain heart infusion medium (BHI, Difco) was used. For anaerobic bacteria, half strength BHI (18.5 g/L) was supplemented by adding yeast extract (10 g/L), hemin (0.29 mL of a stock solution containing 0.1 g/200 mL dH2O) and menadione (15 mL of a stock solution containing 0.15 mL in 30 mL 95% EtOH) was used. Initial cultures were diluted to approximately 1×10^8 CFU/mL for use as an inoculum. Each assay received 10 μL of the inoculum. The drugs were prepared from a stock solution contained in dimethyl sulfoxide (DMSO) and diluted into the culture medium. Final concentrations of the drugs ranged from 50 to 0.05 μg/assay. The tests were run in duplicate and were incubated appropriately with regard to oxygen requirements for 24 to 48 hrs as required. Anaerobic incubation was an atmosphere of 5% CO2, 10% H2, with the balance N2. The lowest concentration of an antimicrobial agent at which no visible growth is noted was referred to as the MIC.
(§6) This embodiment illustrates the efficacy of the compounds of the present invention against Streptococcus strains. One of the strains, Str.pn.R was obtained from the Children's Hospital in Buffalo (strain 00-041-0614). […] The sensitivity of this strain was tested against several known antibiotics.

Another assay has as its system Str. pn. Nature of the assay: Mean Streptococcus MIC. Type of assay: cell-based. The note with it: Streptococcus; Table 5, mean. Here is the method:
as §4, §5, §6

A further assay concerns S. aureus R2. Nature of the assay: Staphylococcus MIC. The format is cell-based. The note with it: second Table 5 (Example 5), strain 00-42-1066. As for the experimental part: as §4, §5
The S.aureus R2 species is a strain 00-42-1066 from the Children's Hospital in Buffalo. It was isolated from a wound in an individual. It was […]. The sensitivity of this strain was tested agaisnt several known antibiotics.

The source of these data is patent US6407288B1, “Naphthylsalicylanilides as antimicrobial and antiinflammatory agents” (The Research Foundation of State University of New York, priority 2000, dated 2002).

≈ marks a conversion by molar mass, not a printed value. Some results are limits rather than exact numbers.

For `CCCCc1ccc(C(=O)c2ccc(O)c(C(=O)Nc3cccc(C(F)(F)F)c3)c2)cc1` [BBAmF, reference compound], the MIC in the assay on P. acnes 11828 was 0.8 µg/mL (≈ 1.81 µM); with P. acnes 6922, 0.2 µg/mL (≈ 0.453 µM); in the assay on Fuso. 25586, greater than 50 µg/mL; with Aa Y4, greater than 50 µg/mL; with P. ging 381 it was less than 0.4 µg/mL; in the assay on Pg 53977 it was less than 0.4 µg/mL. Also, the MIC in the assay on Str. pn. R is greater than 50 µg/mL; in the assay on Str. pn, 0.45 µg/mL (≈ 1.02 µM); against S. aureus R2, greater than 50 µg/mL. In addition, in the assay on Fuso. 25586, the “MIC Fuso. 25586” value was “NE (NE indicates that the drug was not effective at a concentration >50 micrograms/ml)”. In the assay with Aa Y4, the “MIC Aa Y4” value was “NE (NE indicates that the drug was not effective at a concentration >50 micrograms/ml)”. In addition, in the assay on P. ging 381, the “MIC P. ging 381” value is given as less than 0.4 micrograms/ml. Besides, the “MIC Pg 53977” value in the assay with Pg 53977 is given as less than 0.4 micrograms/ml.
In the case of `N#Cc1cccc(NC(=O)c2cc(C(=O)c3ccc(-c4ccccc4)cc3)ccc2O)c1` [BPAmC, reference compound], the MIC in the assay with P. acnes 11828 was 12.5 µg/mL (≈ 29.9 µM); against P. acnes 6922, 0.2 µg/mL (≈ 0.478 µM); with Fuso. 25586 it was greater than 50 µg/mL; against Aa Y4 it was greater than 50 µg/mL; with P. ging 381, less than 0.4 µg/mL; against Pg 53977 it was less than 0.4 µg/mL. Besides, the MIC is greater than 50 µg/mL in the assay with Str. pn. R, 0.58 µg/mL (≈ 1.39 µM) with Str. pn and greater than 50 µg/mL in the assay with S. aureus R2. Further, the “MIC Fuso. 25586” value against Fuso. 25586 is recorded as “NE (NE indicates that the drug was not effective at a concentration >50 micrograms/ml)”. Further, the “MIC Aa Y4” value against Aa Y4 is recorded as “NE (NE indicates that the drug was not effective at a concentration >50 micrograms/ml)”. In addition, the “MIC P. ging 381” value with P. ging 381 is given as less than 0.4 micrograms/ml. Also, the “MIC Pg 53977” value against Pg 53977 is given as less than 0.4 micrograms/ml.
In the case of `O=C(c1ccc(-c2ccccc2)cc1)c1ccc(O)c(C(=O)Nc2cccc(C(F)(F)F)c2)c1` [BPAmF, reference compound], the MIC with P. acnes 11828 is 0.4 µg/mL (≈ 0.867 µM); against P. acnes 6922, 0.2 µg/mL (≈ 0.433 µM); against Fuso. 25586, greater than 50 µg/mL; in the assay with Aa Y4, greater than 50 µg/mL; in the assay with P. ging 381, less than 0.4 µg/mL; with Pg 53977, less than 0.4 µg/mL. Besides, the MIC against Str. pn. R was greater than 50 µg/mL; in the assay on Str. pn it was 0.84 µg/mL (≈ 1.82 µM); with S. aureus R2, greater than 50 µg/mL. Besides, in the assay on Fuso. 25586, the “MIC Fuso. 25586” value was “NE (NE indicates that the drug was not effective at a concentration >50 micrograms/ml)”. The “MIC Aa Y4” value in the assay with Aa Y4 is given as “NE (NE indicates that the drug was not effective at a concentration >50 micrograms/ml)”. In addition, the “MIC P. ging 381” value in the assay with P. ging 381 is listed as less than 0.4 micrograms/ml. For the same compound, the “MIC Pg 53977” value in the assay with Pg 53977 is given as less than 0.4 micrograms/ml.
In the case of `N#Cc1cccc(NC(=O)c2cc(C(=O)c3cccc4ccccc34)ccc2O)c1` [NA1mC], the MIC was found to be 6.3 µg/mL (≈ 16.1 µM) with P. acnes 11828; 6.3 µg/mL (≈ 16.1 µM) in the assay with P. acnes 6922; 2.5 µg/mL (≈ 6.37 µM) against Fuso. 25586; 6.3 µg/mL (≈ 16.1 µM) against Aa Y4; 0.4 µg/mL (≈ 1.02 µM) in the assay with P. ging 381; 0.8 µg/mL (≈ 2.04 µM) with Pg 53977. The MIC against Str. pn. R stood at 12.5 µg/mL (≈ 31.9 µM); against Str. pn, 1.1 µg/mL (≈ 2.8 µM); in the assay on S. aureus R2 it was 6.3 µg/mL (≈ 16.1 µM). Further, in the assay on Fuso. 25586, the “MIC Fuso. 25586” value came to 2.5 micrograms/ml. The “MIC Aa Y4” value against Aa Y4 stood at 6.3 micrograms/ml. For the same compound, in the assay on P. ging 381, the “MIC P. ging 381” value is 0.4 micrograms/ml. In the assay with Pg 53977, the “MIC Pg 53977” value is given as 0.8 micrograms/ml.
On to `O=C(Nc1cccc(C(F)(F)F)c1)c1cc(C(=O)c2cccc3ccccc23)ccc1O` [NA1mF], for which the MIC in the assay with P. acnes 11828 is 0.4 µg/mL (≈ 0.919 µM); against P. acnes 6922, 0.2 µg/mL (≈ 0.459 µM); against Fuso. 25586 it was 3.1 µg/mL (≈ 7.12 µM); in the assay on Aa Y4, 3.1 µg/mL (≈ 7.12 µM); against P. ging 381, less than 0.1 µg/mL; in the assay with Pg 53977, less than 0.1 µg/mL. The MIC against Str. pn. R turned out to be 0.78 µg/mL (≈ 1.79 µM); in the assay on Str. pn, 0.45 µg/mL (≈ 1.03 µM); with S. aureus R2 it was 1.6 µg/mL (≈ 3.67 µM). For the same compound, the “MIC Fuso. 25586” value in the assay on Fuso. 25586 is 3.1 micrograms/ml. In the assay with Aa Y4, the “MIC Aa Y4” value came to 3.1 micrograms/ml. Moreover, in the assay on P. ging 381, the “MIC P. ging 381” value is recorded as less than 0.1 micrograms/ml. Further, the “MIC Pg 53977” value in the assay on Pg 53977 is on record as less than 0.1 micrograms/ml.
